Experimental data as given in US10278956B1, “Use of intravenous melatonin in patients with ST-elevation myocardial infarction” (priority 2018, dated 2019).
“Also recorded” adds a separate entry of the source.

What was measured:
[1] = tested on: STEMI-patients; assay: Pilot randomized, double-blinded, placebo controlled study of intravenous melatonin before pPCI; infarct size by CMR; format: in vivo, human
Protocol: This pilot study is a prospective, randomized, double-blinded, placebo controlled study of consecutive patients admitted with a STEMI. Additional inclusion criteria were presented within 6 hours of chest pain onset and occlusion of culprit artery with TIMI basal flow grade 0 to 1. Patients randomised to intravenous melatonin received a dose of 12 mg (51.7 μmol, in saline solution, in a volume of 50 ml in an opaque syringe) given by a time period of 60 minutes starting immediately before primary percutaneous coronary intervention (pPCI), by via a catheter positioned within a peripheral vein. The control group received a matching intravenous placebo formulation.
A total of 31 patients were enrolled. Groups were well balanced for age, gender, and cardiovascular risk factors. No significant differences were observed between groups concerning baseline clinical and angiographic characteristics. Randomized patients were divided in 2 groups: Group 1 (patients with ischemia duration 3 hours) and Group 2 (patients with ischemia duration >3 hours). Group 1 there had 17 patients (8 treated with melatonin and 9 with placebo) and in the group 2 there were 14 patients (6 treated with melatonin and 8 with placebo).
Myocardial infarct size was calculated as percentage of left ventricular mass by cardiovascular magnetic resonance (CMR).

[2] = tested on: patients with ST-segment elevation myocardial infarction (STEMI); settings: earlier published trial; cited from earlier work
[3] = tested on: closed-chest porcine model; settings: combined intracoronary and intravenous treatment; cited from earlier work
[4] = Group 1 (≤3 hours ischemia duration), 12 mg intravenous over 60 min starting immediately before pPCI, CMR, *P < 0.01 vs Placebo
[5] = Group 2 (>3 hours ischemia duration), 12 mg intravenous over 60 min starting immediately before pPCI, CMR

## COc1ccc2[nH]cc(CCNC(C)=O)c2c1 [Melatonin, melatonin]
[1]; [4]
  Infarct size (g): 16.53 ± 7.28* g
  Infarct size (proportion of left ventricular mass) %: 17.71 ± 7.55* %
[1]; [5]
  Infarct size: 25.69 ± 7.34 g
  Infarct size (proportion of left ventricular mass) %: 20.62 ± 5.37%
[1]; intravenous, given within 3 hours or less after symptom onset (group 1)
  Myocardial infarct size compared with placebo: significantly reduces myocardial infarct size; also recorded: significantly smaller
[1]; time from symptom onset to melatonin administration longer than 3 hours
  Effect on myocardial infarct size compared with placebo: significantly reduced or even opposite effect
[2]
  Effect on ventricular volumes and LVEF evolution: unfavorable effect
  Myocardial infarct size (MIS) compared with placebo: failed to reduce myocardial infarct size
[3]
  Myocardial reperfusion injury: did not reduce myocardial reperfusion injury
